Assay results reported in ChEMBL document CHEMBL4304795, “Bis-benzoxaboroles: Design, Synthesis, and Biological Evaluation as Carbonic Anhydrase Inhibitors” (ACS Med Chem Lett, 2019).
pKi: −log10 of the molar value.

Experiments:
Carbonic anhydrase 9 = Carbonic anhydrase 9 (Homo sapiens, UniProt Q16790); test: Inhibition of human carbonic anhydrase 9 assessed as reduction in CO2 hydration preincubated for 15 mins to 2 hrs by phenol red dye based stopped flow CO2 hydrase assay
Carbonic anhydrase 1 = Carbonic anhydrase 1 (Homo sapiens, UniProt P00915); test: Inhibition of human carbonic anhydrase 1 assessed as reduction in CO2 hydration preincubated for 15 mins to 2 hrs by phenol red dye based stopped flow CO2 hydrase assay
Carbonic anhydrase 1, sequence (P00915 whole entry): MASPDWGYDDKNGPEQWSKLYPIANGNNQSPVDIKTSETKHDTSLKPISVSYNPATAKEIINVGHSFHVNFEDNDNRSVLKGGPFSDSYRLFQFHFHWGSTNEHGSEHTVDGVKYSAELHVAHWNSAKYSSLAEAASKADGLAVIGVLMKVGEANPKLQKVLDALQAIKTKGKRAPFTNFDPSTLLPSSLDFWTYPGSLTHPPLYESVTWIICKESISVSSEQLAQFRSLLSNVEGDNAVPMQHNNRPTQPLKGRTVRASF

Carbonic anhydrase 2 = Carbonic anhydrase 2 (Homo sapiens, UniProt P00918); test: Inhibition of human carbonic anhydrase 2 assessed as reduction in CO2 hydration preincubated for 15 mins to 2 hrs by phenol red dye based stopped flow CO2 hydrase assay
Carbonic anhydrase 4 = Carbonic anhydrase 4 (Homo sapiens, UniProt P22748); test: Inhibition of human carbonic anhydrase 4 assessed as reduction in CO2 hydration preincubated for 15 mins to 2 hrs by phenol red dye based stopped flow CO2 hydrase assay
Carbonic anhydrase 4, sequence (P22748 whole entry): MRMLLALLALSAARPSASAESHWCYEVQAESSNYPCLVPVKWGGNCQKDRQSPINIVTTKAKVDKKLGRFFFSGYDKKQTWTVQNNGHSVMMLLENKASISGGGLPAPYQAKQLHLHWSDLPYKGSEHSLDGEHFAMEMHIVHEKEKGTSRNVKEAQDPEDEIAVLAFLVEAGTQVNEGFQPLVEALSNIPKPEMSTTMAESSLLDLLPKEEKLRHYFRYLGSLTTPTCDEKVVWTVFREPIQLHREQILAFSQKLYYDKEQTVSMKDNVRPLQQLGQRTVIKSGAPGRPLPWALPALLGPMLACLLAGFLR

Structure (SMILES)	pKi (Carbonic anhydrase 9)	pKi (Carbonic anhydrase 1)	pKi (Carbonic anhydrase 2)	pKi (Carbonic anhydrase 4)
O=C(CCC(=O)Nc1ccc2c(c1)B(O)OC2)Nc1ccc2c(c1)B(O)OC2	6.17	5.54	6.47	–
O=C(/C=C/C=C/C(=O)Nc1ccc2c(c1)B(O)OC2)Nc1ccc2c(c1)B(O)OC2	5.31	5.48	5.41	–
O=c1c(Nc2ccc3c(c2)B(O)OC3)c(Nc2ccc3c(c2)B(O)OC3)c1=O	–	5.51	5.64	–
O=C(/C=C/C(=O)Nc1ccc2c(c1)B(O)OC2)Nc1ccc2c(c1)B(O)OC2	5.83	5.49	5.77	–
O=C(CCCCC(=O)Nc1ccc2c(c1)B(O)OC2)Nc1ccc2c(c1)B(O)OC2	6.51	5.78	6.27	–
O=C(Nc1ccc2c(c1)B(O)OC2)c1cc(C(=O)Nc2ccc3c(c2)B(O)OC3)cc(C(=O)Nc2ccc3c(c2)B(O)OC3)c1	5.06	4.66	4.41	< 4.00
CC(C)(C)OC(=O)N[C@@H](CC(=O)Nc1ccc2c(c1)B(O)OC2)C(=O)Nc1ccc2c(c1)B(O)OC2	6.55	6.09	6.04	–
O=C(O)c1ccc2c(c1)B(O)OC2	6.40	6.07	6.76	–
OB1OCc2ccc(/N=C/c3ccc(/C=N/c4ccc5c(c4)B(O)OC5)s3)cc21	6.69	5.38	5.63	–
O=C(C/C=C/CC(=O)Nc1ccc2c(c1)B(O)OC2)Nc1ccc2c(c1)B(O)OC2	5.95	5.61	5.59	–
O=C(CC[C@H](NC(=O)OCc1ccccc1)C(=O)Nc1ccc2c(c1)B(O)OC2)Nc1ccc2c(c1)B(O)OC2	7.19	5.75	6.54	–
O=C(CC(=O)Nc1ccc2c(c1)B(O)OC2)Nc1ccc2c(c1)B(O)OC2	6.80	6.05	6.47	–
